Experimental data taken from patent EP0747346B1, “N-acyl-2 aryl cyclopropylmethylamine derivatives as melatonergics” (BRISTOL-MYERS SQUIBB COMPANY, priority 1995, dated 1996).
Read-outs that look alike come from different tables or passages of the source.

Target: T1, human ML1A (Homo sapiens, UniProt P48039)
T1 construct: expressed in transfected cells; host or cells: COS-1 cells, transient transfection (DEAE-dextran) with pcDNAI; membrane homogenates
Test: Measurement of melatonergic binding: displacement of 2-[125I]-iodomelatonin from membranes of COS-1 cells transfected with human ML1A cDNA
Procedure: Example 145 (Measurement of Melatonergic Binding)
The melatonergic binding of the compounds of Formula I was determined by a modification of the method of Reppert, S. M. et al. (Neuron, Volume 13, pages 1177-1185, 1994). […] The reagents, membranes, and other parameters used in the assay are described below: Reagents: • (a) 50 mM Tris buffer containing 12.5 mM MgCl2, and 2 mM EDTA (pH 7.4 at 37 °C). • (b) Wash buffer: 20 mM Tris base containing 2 mM MgCl2 (pH 7.4 at room temperature). • (c) 6-Chloromelatonin (10^-5 M final concentration). • (d) 2-[^125I]-Iodomelatonin (100 pM final concentration). (Source: NEN) Membrane preparation: The cDNA (human ML1A) in pcDNAI was introduced into COS-1 cells by the DEAE-dextran method. Three days later, after media removal, the plates were washed with buffered saline; the cells removed using Hank's balanced salt solution and pelleted. The supernant was discarded and the pellets frozen. For membrane homogenates, the pellets were thawed and resuspended in TME buffer, Tris base, MgCl2, EDTA (pH 7.4 at 37 °C), and supplemented with aprotinin, leupeptin, and phenylmethylsulfonyl fluoride. The cells were homogenized and centrifuged; the resulting pellet resuspended in TME and frozen. At assay, the small aliquot was thawed on ice and resuspended in TME buffer. Incubation: 37 °C for 1 hour. Reaction is terminated by filtration.

[1] = Binding affinity (IC50) at the human melatonin receptor, Table 5: displacement of 2-[125I]-Iodomelatonin, Formula I compounds with R1 and R = H, G = methylene
[2] = Binding affinity (IC50) at the human melatonin receptor, Table 6: displacement of 2-[125I]-Iodomelatonin, Formula I compounds with X = OCH3, Y and Z = H, R1 = H
[3] = Table 4 (continued): displacement of 2-[125I]-Iodomelatonin, Formula I compounds with X = OCH3, R = H, G = methylene
[4] = displacement of 2-[125I]-Iodomelatonin (100 pM), COS-1 membranes, human ML1A, 37 °C for 1 hour

T1 sequence (P48039 whole entry): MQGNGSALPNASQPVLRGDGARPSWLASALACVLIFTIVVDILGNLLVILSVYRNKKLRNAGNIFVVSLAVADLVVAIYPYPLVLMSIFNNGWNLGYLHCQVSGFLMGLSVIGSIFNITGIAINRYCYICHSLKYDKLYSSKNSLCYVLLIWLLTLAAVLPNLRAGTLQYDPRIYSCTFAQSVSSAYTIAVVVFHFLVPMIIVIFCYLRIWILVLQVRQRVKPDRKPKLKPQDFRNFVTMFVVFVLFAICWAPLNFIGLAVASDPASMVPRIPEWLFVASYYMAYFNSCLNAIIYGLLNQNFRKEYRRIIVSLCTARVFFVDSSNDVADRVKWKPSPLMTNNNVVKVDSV

Question: For `CCCC(=O)NC[C@@H]1C[C@H]1c1cccc(OC(C)C)c1` (racemic) [Example 8, (trans)-N-[[2-[3-(Methylethoxy)phenyl]cyclopropyl]methyl] butanamide], which IC50 [1] is on record?
Answer: Its IC50 is 40 to 250 nM.

Question: With `CCCC(=O)NC[C@H]1[C@H](c2cccc(OC)c2)C1(F)F` (racemic) [Example 12, (±)-(trans)-[2,2-Difluoro-3-(3-methoxyphenyl)-cyclopropylmethyl] butanamide] as the compound, how does the IC50 [2] read?
Answer: Its IC50 is under 5 nM.

Question: How did the IC50 [2] turn out when `CCCC(=O)NC[C@H]1[C@H](c2cccc(OC)c2)C1(C)C` (racemic) [Example 17, (trans)-N-[[3-(3-methoxyphenyl)-2,2-dimethyl-1-cyclopropyl]methyl]butanamide] was run?
Answer: Its IC50 is 250 to 600 nM.

Question: With `CCCC(=O)NC[C@@H]1C[C@H]1c1ccc(Cl)c(OC)c1` (racemic) [Example 27, (trans)-N-[[2-(4-Chloro-3-methoxyphenyl)cyclopropyl]methyl] butanamide] as the compound, how does the IC50 [3] read?
Answer: Its IC50 is under 5 nM.

Question: With `CCCC(=O)NC[C@@H]1C[C@H]1c1cccc(F)c1` (racemic) [Example 44] as the compound, how does the IC50 [1] read?
Answer: The IC50 was 40 to 250 nM.

Question: How did the IC50 [4] turn out when `CCCC(=O)NC[C@@H]1C[C@H]1c1cccc(OCC2CC2c2cccc(OC)c2)c1` (mixture of isomers) [Example 132, (trans)-N-[[2-[3-[[2-(3-Methoxyphenyl)cycloprop-1-yl]methoxy]phenyl]cycloprop-1-yl]methyl] butanamide] was run?
Answer: The IC50 was under 5 nM.

Question: `CCCC(=O)NC[C@@H]1C[C@H]1c1cc(OC)c(Br)cc1Br` (relative stereo) [Example 5, (trans)-N-[[2-(2,4-Dibromo-5-methoxyphenyl)cyclopropyl]methyl] butanamide] was tested. Which IC50 [4] did it give?
Answer: The IC50 was under 5 nM.

Question: `CCCC(=O)NC[C@@H]1C[C@H]1c1cc(OC)ccc1NC(=O)CCC` (relative stereo) [Example 13, (trans)-N-[[2-(2-Butyrylamino-5-methoxyphenyl)cyclopropyl]methyl] butanamide] was tested. Which IC50 [4] did it give?
Answer: Its IC50 is 250 to 600 nM.

Question: With `CCCC(=O)NC[C@@H]1C[C@H]1c1cccc(OC)c1` (single isomer, unassigned) [Example 3a, (+)-(trans)-N-[[2-(3-Methoxyphenyl)cyclopropyl]methyl]butanamide] as the compound, how does the IC50 [4] read?
Answer: The IC50 was 5 to 40 nM.

Question: Which IC50 [4] does the source give for `CCCC(=O)NC[C@@H]1C[C@H]1c1cc(OC)ccc1C#Cc1ccccc1` (single isomer, unassigned) [Example 9a] here?
Answer: Its IC50 is under 5 nM.

Question: `CCCC(=O)NC[C@@H]1C[C@H]1c1cc(OC)ccc1CCc1ccccc1` (single isomer, unassigned) [Example 9b] was tested. Which IC50 [4] did it give?
Answer: The IC50 was 5 to 40 nM.

Question: For `COc1cccc([C@@H]2C[C@H]2CNC(=O)CCCCl)c1` (single isomer, unassigned) [Example 35], which IC50 [3] is on record?
Answer: Its IC50 is 5 to 40 nM.

Question: Which IC50 [3] does the source give for `COc1cccc([C@@H]2C[C@H]2CNC(=O)C2CCCC2)c1` (single isomer, unassigned) [Example 37] here?
Answer: The IC50 was 250 to 600 nM.

Question: For `COc1cccc([C@@H]2C[C@H]2CNC(=O)CC(F)(F)F)c1` (single isomer, unassigned) [Example 42, (-)-(trans)-3,3,3-Trifluor-N-[[2-(3-methoxyphenyl)cycloprop-1-yl]methyl] propanamide], which IC50 [3] is on record?
Answer: The IC50 was under 5 nM.

Question: `CCCC(=O)NC[C@@H]1C[C@H]1c1cccc(OC(F)(F)F)c1` (single isomer, unassigned) [Example 64] was tested. Which IC50 [1] did it give?
Answer: Its IC50 is 5 to 40 nM.

Question: With `CCCC(=O)NC[C@@H]1C[C@H]1c1cc(F)ccc1Br` (single isomer, unassigned) [Example 66] as the compound, how does the IC50 [1] read?
Answer: Its IC50 is 5 to 40 nM.

Question: Which IC50 [1] does the source give for `CCCC(=O)NC[C@@H]1C[C@H]1c1ccc(I)c(OC(F)(F)F)c1` (single isomer, unassigned) [Example 69] here?
Answer: The IC50 was 5 to 40 nM.

Question: With `CCCC(=O)NC[C@@H]1C[C@H]1c1cc(F)ccc1I` (single isomer, unassigned) [Example 70] as the compound, how does the IC50 [1] read?
Answer: The IC50 was 40 to 250 nM.

Question: For `CCCC(=O)NC[C@@H]1C[C@H]1c1ccc(I)c(F)c1` (single isomer, unassigned) [Example 71, (-)-(trans)-N-[[2-(3-Fluoro-4-iodophenyl)cycloprop-1-yl]methyl] butanamide], which IC50 [1] is on record?
Answer: Its IC50 is 40 to 250 nM.

Question: How did the IC50 [1] turn out when `CCCC(=O)NC[C@@H]1C[C@H]1c1cccc(O)c1` (single isomer, unassigned) [Example 79] was run?
Answer: The IC50 was 40 to 250 nM.

Question: How did the IC50 [1] turn out when `CCCC(=O)NC[C@@H]1C[C@H]1c1cccc(C(F)(F)C(F)(F)F)c1` (single isomer, unassigned) [Example 89] was run?
Answer: The IC50 was 40 to 250 nM.

Question: How did the IC50 [2] turn out when `CCCC(=O)NC(C)[C@@H]1C[C@H]1c1cccc(OC)c1` (single isomer, unassigned) [Example 136] was run?
Answer: The IC50 was 5 to 40 nM.

Question: How did the IC50 [2] turn out when `CCCC(=O)NC(C)[C@@H]1C[C@H]1c1cccc(OC)c1` (single isomer, unassigned; (-)) [Example 14, (-)-(trans)-N-[1-[2-(3-Methoxyphenyl)cyclopropyl]ethyl] butanamide] was run?
Answer: Its IC50 is 40 to 250 nM.

Question: With `CCCC(=O)NC[C@@H]1C[C@H]1c1cccc(OC)c1` [Example 3b, (-)-(trans)-N-[[2-(3-Methoxyphenyl)cyclopropyl]methyl] butanamide] as the compound, how does the IC50 [4] read?
Answer: The IC50 was under 5 nM.

Question: For `CCCC(=O)NC[C@@H]1C[C@H]1c1cc(OC)ccc1C#N` [Example 10, (-)-(trans)-N-[[2-(2-Cyano-5-methoxyphenyl]cyclopropyl]methyl] butanamide], which IC50 [4] is on record?
Answer: The IC50 was 5 to 40 nM.

Question: How did the IC50 [4] turn out when `CCCC(=O)NC[C@@H]1C[C@H]1c1cc(OC)ccc1-c1ccccc1` [Example 11, (-)-(trans)-N-[[2-(2-Phenyl-5-methoxyphenyl]cyclopropyl]methyl] butanamide] was run?
Answer: The IC50 was 5 to 40 nM.

Question: How did the IC50 [4] turn out when `COc1cccc([C@@H]2C[C@H]2CNC(=O)C(C)C)c1` [Example 22, (-)-(trans)-N-[[2-(3-Methoxyphenyl)cyclopropyl]methyl]-2-methylpropanamide] was run?
Answer: The IC50 was 5 to 40 nM.

Question: With `CCCC(=O)NC[C@@H]1C[C@H]1c1cc(OC)ccc1I` [Example 32, (-)-(trans)-N-[[2-(2-Iodo-5-methoxyphenyl)cyclopropyl]methyl] butanamide] as the compound, how does the IC50 [3] read?
Answer: Its IC50 is under 5 nM.

Question: For `CCCC(=O)NC[C@@H]1C[C@H]1c1ccc(I)c(OC)c1` [Example 33, (-)-(trans)-N-[[2-(4-Iodo-3-methoxyphenyl)cycloprop-1-yl]methyl] butanamide], which IC50 [3] is on record?
Answer: Its IC50 is 5 to 40 nM.

Question: With `CCCC(=O)NC[C@@H]1C[C@H]1c1cc(OC)ccc1-c1ccc(C(F)(F)F)cc1` [Example 34, (-)-(trans)-N-[[2-[4-Methoxy-4'-(trifluoromethyl) [1,1'-biphenyl]-2yl]cycloprop-1-yl]methyl] butanamide] as the compound, how does the IC50 [3] read?
Answer: The IC50 was 5 to 40 nM.

Question: How did the IC50 [3] turn out when `COc1cccc([C@@H]2C[C@H]2CNC(=O)C2CC2)c1` [Example 36, (-)-(trans)-N-[[2-(3-Methoxyphenyl)cycloprop-1-yl]methyl]cyclopropane carboxamide] was run?
Answer: The IC50 was under 5 nM.

Question: For `CNC(=O)NC[C@@H]1C[C@H]1c1cccc(OC)c1` [Example 39, (-)-(trans)-N-[[2-(3-Methoxyphenyl)cycloprop-1-yl]methyl]-N'-methyl urea], which IC50 [3] is on record?
Answer: Its IC50 is under 5 nM.

Question: For `COc1cccc([C@@H]2C[C@H]2CNC(C)=O)c1` [Example 41, (-)-(trans)-N-[[2-(3-Methoxyphenyl)cycloprop-1-yl]methyl] acetamide], which IC50 [3] is on record?
Answer: Its IC50 is under 5 nM.

Question: How did the IC50 [4] turn out when `CCCC(=O)NC[C@@H]1C[C@H]1c1cccc(OCC2C(c3cccc(OC)c3)C2(C)C)c1` (some centres unmarked) [Example 131] was run?
Answer: The IC50 was 5 to 40 nM.

Question: How did the IC50 (read-out: Binding affinity (IC50) at the human melatonin receptor, Table 5: displacement of 2-[125I]-Iodomelatonin, Formula I compounds with R1 and R = H, G = methylene) turn out when “(trans)-N-[2-[(3-Trideuteromethoxyphenyl)cycloprop-1-yl]methyl] butanamide [Example 111]” was run?
Answer: The IC50 was under 5 nM.
